Measured values as given in ChEMBL document CHEMBL5380860, “Design, Synthesis, and Antitumor Activity of Potent and Selective EGFR L858R/T790M Inhibitors and Identification of a Combination Therapy to Overcome Acquired Resistance in Models of Non-small-cell Lung Cancer” (J Med Chem, 2023).
Calls of active or inactive are those of the source. No cut-off for these calls is given here.

How the values were obtained:
A-431 = assay: Inhibition of clonogenicity in human A-431 cells assessed as inhibition of colony formation at 0.1 to 10 uM incubated for 14 days by crystal violet staining based analysis; assay type: toxicity, cell-based; conditions: a-431, 336 h, dose 0.1-10 µM, time 14 day
[1] = tested on: Epidermal growth factor receptor (Homo sapiens), P00533 [L858R,T790M]; assay: Covalent binding affinity to EGFR L858R/T790M mutant (unknown origin) assessed as covalent adduct formation at Cys797 residue at protein to compound concentration ratio of 1:4 incubated for 1 hr and measured following enzymatic hydrolysis by LC-MS analysis

C=CC(=O)Nc1cccc(Nc2nc(Nc3ccc(N4CCN(C)CC4)cc3)nc3ccc(F)cc23)c1
Activity (A-431): Non-Toxic
Activity [1]: Active
